# In patent publication US20240391862A1, “(1,4,5-TRISUBSTITUTED-1H-PYRAZOL-3-YL)OXY-2-ALKOXY ALKYL ACIDS AND THEIR DERIVATIVES, THEIR SALTS AND THEIR USE AS HERBICIDAL AGENTS” (Bayer AKtiengesellschaft, priority 2021, published 2024):
# Columns and labels:
# ZEAMX = assay: Post-emergence herbicidal effect and crop plant compatibility, greenhouse pot test; type: in vivo, Zea mays; conditions: one-leaf stage, rated visually after about 3 weeks vs untreated controls; for plant injury at 20 g/ha / plant injury at 80 g/ha: Zea mays, 504 h; for plant injury at 20 g/ha: read-out: Post-emergence effect at 20 g/ha against ZEAMX in %; for plant injury at 80 g/ha: read-out: Post-emergence effect at 80 g/ha against ZEAMX in %
# How it was run: (§1)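 Greenhouse pot plants in sandy loam receive a one-leaf-stage spray at 20 to 320 g/ha. Activity is assessed visually around 3 weeks afterwards on a 0–100% scale, where 100% means the plants have died.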
# TRZAS = assay: as above; type: in vivo, Triticum aestivum; conditions: Triticum aestivum, 504 h, 20 g/ha, one-leaf stage, rated visually after about 3 weeks vs untreated controls, read-out: Post-emergence effect at 20 g/ha against TRZAS in %
# Source text: • ALOMY: Alopecurus myosuroides SETVI: Setaria viridis • AVEFA: Avena fatua POLCO: Fallopia convolvulus • AMARE: Amaranthus retroflexus ECHCG: Echinochloa crus-galli • LOLRJ: Lolium rigidum STEME: Stellaria media • VERPE: Veronica persica MATIN: Tripleurospermum inodorum • DIGSA: Digitaria sanguinalis ABUTH: Abutylon threophrasti • TRZAS: Triticum aestivum VIOTR: Viola tricolor • BRSNW: Brassica napus ZEAMX: Zea mays • PHBPU: Ipomoea purpurea GLXMA: Glycine max • ORYSA: Oryza sativa HORMU: Hordeum murinum
# Seeds of monocotyledonous and dicotyledonous weeds and crop plants are placed in sandy loam in plastic or organic planting pots, covered with soil and cultivated in a greenhouse under controlled growth conditions. 2 to 3 weeks after sowing, the trial plants are treated at the one-leaf stage. The compounds of the invention, formulated in the form of wettable powders (WP) or as emulsion concentrates (EC), are then sprayed onto the green parts of the plants as aqueous suspension or emulsion with addition of 0.5% additive at a water application rate of 600 l/ha (converted). After the test plants have been kept in the greenhouse under optimum growth conditions for about 3 weeks, the activity of the preparations is rated visually in comparison to untreated controls. For example, 100% activity=the plants have died, 0% activity=like control plants.
# Tables 20a to 38c below show the effects/crop compatibilities of selected compounds of the general formula (I) on various harmful plants at an application rate corresponding to 20 to 320 g/ha, which were obtained by the trial procedure specified above.
# ABUTH = assay: Post-emergence herbicidal effect, greenhouse pot test; type: in vivo, Abutilon theophrasti; conditions: visual rating about 3 weeks after treatment
# How it was run: as §1
# ALOMY = assay: as above; type: in vivo, Alopecurus myosuroides; conditions: visual rating about 3 weeks after treatment
# How it was run: as §1
# AMARE = assay: as above; type: in vivo, Amaranthus retroflexus; conditions: visual rating about 3 weeks after treatment
# How it was run: as §1
# AVEFA = assay: as above; type: in vivo, Avena fatua; conditions: visual rating about 3 weeks after treatment
# How it was run: as §1
# DIGSA = assay: as above; type: in vivo, Digitaria sanguinalis; conditions: visual rating about 3 weeks after treatment
# How it was run: as §1
# ECHCG = assay: as above; type: in vivo, Echinochloa crus-galli; conditions: for Post-emergence effect against ECHCG: 20 g/ha, visual rating about 3 weeks after treatment
# How it was run: as §1
# LOLRI = assay: as above; type: in vivo, Lolium rigidum
# How it was run: as §1
# MATIN = assay: as above; type: in vivo, Tripleurospermum inodorum
# How it was run: as §1
# PHBPU = assay: as above; type: in vivo, Ipomoea purpurea
# How it was run: as §1
# POLCO = assay: as above; type: in vivo, Fallopia convolvulus
# How it was run: as §1
# SETVI = assay: as above; type: in vivo, Setaria viridis
# How it was run: as §1
# VERPE = assay: as above; type: in vivo, Veronica persica
# How it was run: as §1
# VIOTR = assay: as above; type: in vivo, Viola tricolor
# How it was run: as §1
# KCHSC = assay: as above; type: in vivo
# How it was run: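 Visual rating of activity against untreated plants (100% = plants died, 0% = no effect), done about 3 weeks after treatment. Compounds applied at 20–320 g/ha as aqueous spray (600 l/ha, 0.5% additive) from WP or EC formulations onto one-leaf-stage plants grown in sandy loam under greenhouse conditions.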
structure (smiles),measurement,setting,value
COC(Oc1nn(-c2cnccn2)c(-c2ccc(F)nc2)c1Br)C(=O)O (stereo not drawn) [Example I-43],plant injury at 20 g/ha,ZEAMX; 20 g/ha,0%
same,plant injury at 80 g/ha,ZEAMX,0%
same,"percent crop injury (phytotoxicity) to wheat, post-emergence at 20 g/ha",TRZAS,0%
"COC(=O)CCOC(=O)C(OC)Oc1nn(-c2ccccc2F)c(-c2ccc(F)nc2)c1C1CC1 (single isomer, unassigned) [Example I-74]",Post-emergence effect at 20 g/ha against ZEAMX in %,ZEAMX; 20 g/ha,0%
same,Post-emergence effect against ABUTH,ABUTH; 20 g/ha,80%
same,Post-emergence effect against ABUTH,ABUTH; 80 g/ha,80%
same,Post-emergence effect against ABUTH,ABUTH; 320 g/ha,90%
same,Post-emergence effect against ALOMY,ALOMY; 320 g/ha,90%
same,Post-emergence effect against AMARE,AMARE; 20 g/ha,80%
same,Post-emergence effect against AMARE,AMARE; 80 g/ha,80%
same,Post-emergence effect against AMARE,AMARE; 320 g/ha,80%
same,Post-emergence effect against AVEFA,AVEFA; 80 g/ha,90%
same,Post-emergence effect against AVEFA,AVEFA; 320 g/ha,90%
same,Post-emergence effect against DIGSA,DIGSA; 80 g/ha,80%
same,Post-emergence effect against DIGSA,DIGSA; 320 g/ha,90%
same,Post-emergence effect against ECHCG,ECHCG,90%
same,Post-emergence effect against ECHCG in %,ECHCG; 80 g/ha,90%
same,Post-emergence effect against ECHCG in %,ECHCG; 320 g/ha,90%
same,Post-emergence effect against LOLRI in %,LOLRI; 320 g/ha,90%
same,Post-emergence effect against MATIN in %,MATIN; 80 g/ha,80%
same,Post-emergence effect against MATIN in %,MATIN; 320 g/ha,80%
same,Post-emergence effect against PHBPU in %,PHBPU; 20 g/ha,80%
same,Post-emergence effect against PHBPU in %,PHBPU; 80 g/ha,90%
same,Post-emergence effect against PHBPU in %,PHBPU; 320 g/ha,90%
same,Post-emergence effect against POLCO in %,POLCO; 320 g/ha,90%
same,Post-emergence effect against SETVI in %,SETVI; 80 g/ha,90%
same,Post-emergence effect against SETVI in %,SETVI; 320 g/ha,90%
same,Post-emergence effect against VERPE in %,VERPE; 80 g/ha,90%
same,Post-emergence effect against VERPE in %,VERPE; 320 g/ha,90%
same,Post-emergence effect against VIOTR in %,VIOTR; 20 g/ha,80%
same,Post-emergence effect against VIOTR in %,VIOTR; 80 g/ha,90%
same,Post-emergence effect against VIOTR in %,VIOTR; 320 g/ha,90%
same,Post-emergence effect against KCHSC in %,KCHSC; 320 g/ha,90%
CCOC(=O)C(OC)Oc1nn(-c2ncccc2F)c(-c2ccc(F)nc2)c1Br (stereo not drawn) [Example I-14],plant injury at 20 g/ha,ZEAMX; 20 g/ha,0%
same,pest or weed control at 80 g/ha,"ABUTH; Abutilon theophrasti, 504 h, 80 g/ha, read-out: Post-emergence effect against ABUTH",90%
same,pest or weed control at 320 g/ha,"ABUTH; Abutilon theophrasti, 504 h, 320 g/ha, read-out: Post-emergence effect against ABUTH",90%
same,pest or weed control at 320 g/ha,"ALOMY; Alopecurus myosuroides, 504 h, 320 g/ha, read-out: Post-emergence effect against ALOMY",90%
same,pest or weed control at 320 g/ha,"AMARE; Amaranthus retroflexus, 504 h, 320 g/ha, read-out: Post-emergence effect against AMARE",80%
same,pest or weed control at 80 g/ha,"AVEFA; Avena fatua, 504 h, 80 g/ha, read-out: Post-emergence effect against AVEFA",90%
same,pest or weed control at 320 g/ha,"AVEFA; Avena fatua, 504 h, 320 g/ha, read-out: Post-emergence effect against AVEFA",90%
same,pest or weed control at 80 g/ha,"DIGSA; Digitaria sanguinalis, 504 h, 80 g/ha, read-out: Post-emergence effect against DIGSA",80%
same,pest or weed control at 320 g/ha,"DIGSA; Digitaria sanguinalis, 504 h, 320 g/ha, read-out: Post-emergence effect against DIGSA",90%
same,pest or weed control at 80 g/ha,"ECHCG; Echinochloa crus-galli, 504 h, 80 g/ha, read-out: Post-emergence effect against ECHCG in %",90%
same,pest or weed control at 320 g/ha,"ECHCG; Echinochloa crus-galli, 504 h, 320 g/ha, read-out: Post-emergence effect against ECHCG in %",90%
same,pest or weed control at 80 g/ha,"LOLRI; Lolium rigidum, 504 h, 80 g/ha, read-out: Post-emergence effect against LOLRI in %",90%
same,pest or weed control at 320 g/ha,"LOLRI; Lolium rigidum, 504 h, 320 g/ha, read-out: Post-emergence effect against LOLRI in %",90%
same,pest or weed control at 320 g/ha,"MATIN; Tripleurospermum inodorum, 504 h, 320 g/ha, read-out: Post-emergence effect against MATIN in %",90%
same,pest or weed control at 80 g/ha,"PHBPU; Ipomoea purpurea, 504 h, 80 g/ha, read-out: Post-emergence effect against PHBPU in %",80%
same,pest or weed control at 320 g/ha,"PHBPU; Ipomoea purpurea, 504 h, 320 g/ha, read-out: Post-emergence effect against PHBPU in %",90%
same,pest or weed control at 80 g/ha,"POLCO; Fallopia convolvulus, 504 h, 80 g/ha, read-out: Post-emergence effect against POLCO in %",80%
same,pest or weed control at 320 g/ha,"POLCO; Fallopia convolvulus, 504 h, 320 g/ha, read-out: Post-emergence effect against POLCO in %",80%
same,pest or weed control at 320 g/ha,"SETVI; Setaria viridis, 504 h, 320 g/ha, read-out: Post-emergence effect against SETVI in %",90%
same,pest or weed control at 320 g/ha,"VERPE; Veronica persica, 504 h, 320 g/ha, read-out: Post-emergence effect against VERPE in %",90%
same,pest or weed control at 80 g/ha,"VIOTR; Viola tricolor, 504 h, 80 g/ha, read-out: Post-emergence effect against VIOTR in %",90%
same,pest or weed control at 320 g/ha,"VIOTR; Viola tricolor, 504 h, 320 g/ha, read-out: Post-emergence effect against VIOTR in %",90%
same,pest or weed control at 80 g/ha,"KCHSC; 504 h, 80 g/ha, read-out: Post-emergence effect against KCHSC in %",90%
same,pest or weed control at 320 g/ha,"KCHSC; 504 h, 320 g/ha, read-out: Post-emergence effect against KCHSC in %",90%
COC(=O)C(OC)Oc1nn(-c2ncccc2F)c(-c2cncc(F)c2)c1C1CC1 (stereo not drawn) [Example I-86],plant injury at 20 g/ha,ZEAMX; 20 g/ha,0%
same,plant injury at 80 g/ha,ZEAMX,0%
same,Post-emergence effect against ABUTH,ABUTH; 80 g/ha,80%
same,Post-emergence effect against ABUTH,ABUTH; 320 g/ha,80%
same,Post-emergence effect against ALOMY,ALOMY; 80 g/ha,90%
same,Post-emergence effect against ALOMY,ALOMY; 320 g/ha,90%
same,Post-emergence effect against AMARE,AMARE; 80 g/ha,80%
same,Post-emergence effect against AMARE,AMARE; 320 g/ha,90%
same,Post-emergence effect against AVEFA,AVEFA; 80 g/ha,90%
same,Post-emergence effect against AVEFA,AVEFA; 320 g/ha,90%
same,pest or weed control at 20 g/ha,"AVEFA; Avena fatua, 504 h, 20 g/ha, read-out: Post-emergence effect against AVEFA",80%
same,Post-emergence effect against DIGSA,DIGSA; 320 g/ha,80%
same,Post-emergence effect against ECHCG,ECHCG,80%
same,Post-emergence effect against ECHCG in %,ECHCG; 80 g/ha,90%
same,Post-emergence effect against ECHCG in %,ECHCG; 320 g/ha,90%
same,Post-emergence effect against LOLRI in %,LOLRI; 80 g/ha,90%
same,Post-emergence effect against LOLRI in %,LOLRI; 320 g/ha,90%
same,pest or weed control at 20 g/ha,"LOLRI; Lolium rigidum, 504 h, 20 g/ha, read-out: Post-emergence effect against LOLRI in %",80%
same,Post-emergence effect against MATIN in %,MATIN; 320 g/ha,90%
same,Post-emergence effect against PHBPU in %,PHBPU; 20 g/ha,80%
same,Post-emergence effect against PHBPU in %,PHBPU; 80 g/ha,90%
same,Post-emergence effect against PHBPU in %,PHBPU; 320 g/ha,90%
same,Post-emergence effect against POLCO in %,POLCO; 80 g/ha,80%
same,Post-emergence effect against POLCO in %,POLCO; 320 g/ha,90%
same,pest or weed control at 20 g/ha,"POLCO; Fallopia convolvulus, 504 h, 20 g/ha, read-out: Post-emergence effect against POLCO in %",80%
same,Post-emergence effect against SETVI in %,SETVI; 80 g/ha,90%
same,Post-emergence effect against SETVI in %,SETVI; 320 g/ha,90%
same,Post-emergence effect against VERPE in %,VERPE; 80 g/ha,80%
same,Post-emergence effect against VERPE in %,VERPE; 320 g/ha,90%
same,Post-emergence effect against VIOTR in %,VIOTR; 80 g/ha,90%
same,Post-emergence effect against VIOTR in %,VIOTR; 320 g/ha,90%
same,Post-emergence effect against KCHSC in %,KCHSC; 80 g/ha,90%
same,Post-emergence effect against KCHSC in %,KCHSC; 320 g/ha,90%
